# Numbered stars: 1 amine (or outer) side, 2 acyl side, 3 side chain; on linkers, the order of the positions; unused ones are H or OH. Square brackets hold non-standard residues; d marks the D form. Peptide text beside a SMILES is read from it. * marks the point of attachment. X3 = NCCCC[C@@H](C(=O)[*:2])N(C[C@@H](N)CCCN=C(N)N)[*:1]; X1 = NCCCC[C@H](N)CN([C@@H](CCCCN)C(=O)[*:2])[*:1]; X2 = NCCCCCCN([C@@H](CCCCN)C(=O)[*:2])[*:1]; X6 = N=C(N)NCCCC(CCCNC(=N)N)C(=O)*; X7 = NC(N)=NCCCC(CCCN=C(N)N)C(=O)*; NMeR = CN[C@@H](CCCNC(=N)N)C(=O)O; Tle = CC(C)(C)[C@H](N)C(=O)O; X4 = NCCCCC(CCCCN)C(=O)*; X5 = NCCCC(CCCN)C(=O)*
# Legend:
# Mus musculus [1] = experiment: Compound was tested in vivo for its ability to inhibit spontaneous locomotor activity of mice after intraperitoneal administration; assay type: functional; settings: ip
# HT-29 = experiment: Compound was tested in vitro to mobilize calcium from HT-29 cells; assay type: functional, cell-based; settings: Homo sapiens
# [2] = molecular target: T1, Neurotensin receptor type 1 (Mus musculus, UniProt O88319); experiment: Binding affinity for Neurotensin Receptor
# Mus musculus [3] = experiment: Compound was tested in vivo for its ability to inhibit spontaneous locomotor activity of mice after intracerebroventricular administration; assay type: functional; settings: central
# Mus musculus [4] = experiment: Compound was tested in vivo for its ability to inhibit spontaneous locomotor activity of mice; intraperitoneal administration; assay type: functional; settings: ip
# Mus musculus [5] = experiment: Analgesic activity was evaluated in the acetic acid induced stretching paradigm after subcutaneous administration; assay type: functional; settings: sc
# [6] = molecular target: T1, Neurotensin receptor type 1; experiment: Compound was tested in vitro for its binding affinity against Neurotensin Receptor […]
# T1 sequence (O88319 whole entry): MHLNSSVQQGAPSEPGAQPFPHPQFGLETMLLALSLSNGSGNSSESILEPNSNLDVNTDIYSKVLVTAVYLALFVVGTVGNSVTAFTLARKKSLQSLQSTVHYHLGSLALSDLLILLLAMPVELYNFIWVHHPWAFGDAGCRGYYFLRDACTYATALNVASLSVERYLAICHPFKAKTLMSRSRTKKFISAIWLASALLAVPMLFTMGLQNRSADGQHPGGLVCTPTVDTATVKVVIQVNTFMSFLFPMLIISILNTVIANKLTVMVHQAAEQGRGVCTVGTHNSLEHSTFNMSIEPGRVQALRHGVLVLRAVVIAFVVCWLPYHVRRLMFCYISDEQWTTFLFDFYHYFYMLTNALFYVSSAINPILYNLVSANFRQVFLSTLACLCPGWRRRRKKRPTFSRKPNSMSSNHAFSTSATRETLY
Structure (SMILES),Ki [2] [nM],ED50 (Mus musculus [1]) [mg/kg],further results
CC(C)C[C@H](NC(=O)[C@@H](NC(=O)[C@H](Cc1ccc(O)cc1)NC(=O)[C@@H]1CCCN1C(=O)[C@H](CCCCN)NC[C@@H](N)CCCCN)C(C)(C)C)C(=O)O (H-[X1]PY[Tle]L-OH) [listing 1 of 2 here],,0.9,
CC[C@H](C)[C@H](NC(=O)[C@H](Cc1ccc(O)cc1)NC(=O)[C@@H]1CCCN1C(=O)[C@H](CCCNC(=N)N)NC(=O)[C@@H](N)CCCNC(=N)N)C(=O)N[C@@H](CC(C)C)C(=O)O [listing 1 of 2 here],,,EC50 (HT-29): 4.21 nM
CCOC(=O)[C@H](CC(C)C)NC(=O)[C@@H](NC(=O)[C@H](Cc1c[nH]c2ccccc12)NC(=O)[C@@H]1CCCN1C(=O)[C@H](CCCCN)NC[C@@H](N)CCCN=C(N)N)C(C)(C)C (H-[X3]PW[Tle]L-OEt) [listing 1 of 2 here],,,ED50 (Mus musculus [3]): 1.6 mg/kg; ED50 (Mus musculus [4]): 0.15 mg/kg
CC(C)C[C@H](NC(=O)[C@@H](NC(=O)[C@H](Cc1c[nH]c2ccccc12)NC(=O)[C@@H]1CCCN1C(=O)C(CCCCN)CCCCN)C(C)(C)C)C(=O)O (X4-PW[Tle]L-OH) [listing 1 of 2 here],,0.6,
CC[C@H](C)[C@H](NC(=O)[C@H](Cc1c[nH]c2ccccc12)NC(=O)[C@@H]1CCCN1C(=O)[C@H](CCCCN)NC[C@@H](N)CCCCN)C(=O)N[C@@H](CC(C)C)C(=O)O (H-[X1]PWIL-OH) [listing 1 of 2 here],,6.3,
CC[C@H](C)[C@H](NC(=O)[C@H](Cc1ccc(O)cc1)NC(=O)[C@@H]1CCCN1C(=O)[C@H](CCCNC(=N)N)NC(=O)[C@@H](N)CCCNC(=N)N)C(=O)N[C@@H](CC(C)C)C(=O)O [listing 2 of 2 here],,,ED50 (Mus musculus [4]): > 10 mg/kg; ED50 (Mus musculus [5]): > 10 mg/kg
CCOC(=O)[C@H](CC(C)C)NC(=O)[C@@H](NC(=O)[C@H](Cc1c[nH]c2ccccc12)NC(=O)[C@@H]1CCCN1C(=O)[C@H](CCCCN)NCCCCCCN)C(C)(C)C (H-[X2]PW[Tle]L-OEt) [listing 2 of 2 here],,,ED50 (Mus musculus [4]): 0.3 mg/kg; ED50 (Mus musculus [5]): 0.05 mg/kg
CN[C@@H](CCCNC(=N)N)C(=O)N[C@@H](CCCCN)C(=O)N1CCC[C@H]1C(=O)N[C@@H](Cc1c[nH]c2ccccc12)C(=O)N[C@H](C(=O)N[C@@H](CC(C)C)C(=O)O)C(C)(C)C (H-[NMeR]KPW[Tle]L-OH),,,Ki [6]: 0.064 nM
CC(C)C[C@H](NC(=O)[C@@H](NC(=O)[C@H](Cc1c[nH]c2ccccc12)NC(=O)[C@@H]1CCCN1C(=O)[C@H](CCCCN)NC[C@@H](N)CCCCN)C(C)(C)C)C(=O)O (H-[X1]PW[Tle]L-OH) [listing 2 of 2 here],,0.14,
CCOC(=O)[C@H](CC(C)C)NC(=O)[C@@H](NC(=O)[C@H](Cc1c[nH]c2ccccc12)NC(=O)[C@@H]1CCCN1C(=O)[C@H](CCCCN)NC[C@@H](N)CCCCN)C(C)(C)C (H-[X1]PW[Tle]L-OEt) [listing 1 of 2 here],,0.21,
CC(C)C[C@H](NC(=O)[C@@H](NC(=O)[C@H](Cc1c[nH]c2ccccc12)NC(=O)[C@@H]1CCCN1C(=O)[C@H](CCCCN)NC[C@@H](N)CCCN=C(N)N)C(C)(C)C)C(=O)O (H-[X3]PW[Tle]L-OH) [listing 2 of 2 here],,,ED50 (Mus musculus [4]): 0.48 mg/kg; ED50 (Mus musculus [5]): 0.3 mg/kg
CC(C)C[C@H](NC(=O)[C@@H](NC(=O)[C@H](Cc1c[nH]c2ccccc12)NC(=O)[C@@H]1CCCN1C(=O)C(CCCN)CCCN)C(C)(C)C)C(=O)O (X5-PW[Tle]L-OH) [listing 2 of 2 here],,0.5,
CC[C@H](C)[C@H](NC(=O)[C@H](Cc1ccc(O)cc1)NC(=O)[C@@H]1CCCN1C(=O)[C@H](CCCCN)NC[C@@H](N)CCCCN)C(=O)N[C@@H](CC(C)C)C(=O)O (H-[X1]PYIL-OH) [listing 1 of 2 here],,> 10,
CC[C@H](C)[C@H](NC(=O)[C@H](Cc1ccc(O)cc1)NC(=O)[C@@H]1CCCN1C(=O)[C@H](CCCCN)NC[C@@H](N)CCCCN)C(=O)N[C@@H](CC(C)C)C(=O)O (H-[X1]PYIL-OH) [listing 2 of 2 here],0.15,,
CC(C)C[C@H](NC(=O)[C@@H](NC(=O)[C@H](Cc1c[nH]c2ccccc12)NC(=O)[C@@H]1CCCN1C(=O)C(CCCN=C(N)N)CCCN=C(N)N)C(C)(C)C)C(=O)O (X7-PW[Tle]L-OH),,1.5,

# Further lines, with some results ahead:
Ki [2] [nM],Structure (SMILES),ED50 (Mus musculus [1]) [mg/kg],further results
27,CCOC(=O)[C@H](CC(C)C)NC(=O)[C@@H](NC(=O)[C@H](Cc1c[nH]c2ccccc12)NC(=O)[C@@H]1CCCN1C(=O)[C@H](CCCCN)NCCCCCCN)C(C)(C)C (H-[X2]PW[Tle]L-OEt) [listing 1 of 2 here],,
1.13,CC(C)C[C@H](NC(=O)[C@@H](NC(=O)[C@H](Cc1c[nH]c2ccccc12)NC(=O)[C@@H]1CCCN1C(=O)[C@H](CCCCN)NC[C@@H](N)CCCCN)C(C)(C)C)C(=O)O (H-[X1]PW[Tle]L-OH) [listing 1 of 2 here],,EC50 (HT-29): 362 nM
3.8,CC(C)C[C@H](NC(=O)[C@@H](NC(=O)[C@H](Cc1c[nH]c2ccccc12)NC(=O)[C@@H]1CCCN1C(=O)C(CCCCN)CCCCN)C(C)(C)C)C(=O)O (X4-PW[Tle]L-OH) [listing 2 of 2 here],,
17.1,CC(C)C[C@H](NC(=O)[C@@H](NC(=O)[C@H](Cc1c[nH]c2ccccc12)NC(=O)[C@@H]1CCCN1C(=O)[C@H](CCCCN)NC[C@@H](N)CCCN=C(N)N)C(C)(C)C)C(=O)O (H-[X3]PW[Tle]L-OH) [listing 1 of 2 here],,
17,CC(C)C[C@H](NC(=O)[C@@H](NC(=O)[C@H](Cc1c[nH]c2ccccc12)NC(=O)[C@@H]1CCCN1C(=O)C(CCCN)CCCN)C(C)(C)C)C(=O)O (X5-PW[Tle]L-OH) [listing 1 of 2 here],,
0.06,CC[C@H](C)[C@H](NC(=O)[C@H](Cc1c[nH]c2ccccc12)NC(=O)[C@@H]1CCCN1C(=O)[C@H](CCCCN)NC[C@@H](N)CCCCN)C(=O)N[C@@H](CC(C)C)C(=O)O (H-[X1]PWIL-OH) [listing 2 of 2 here],,EC50 (HT-29): 110 nM
0.1,CC(C)C[C@H](NC(=O)[C@@H](NC(=O)[C@H](Cc1c[nH]c2ccccc12)NC(=O)[C@@H]1CCCN1C(=O)C(CCCNC(=N)N)CCCNC(=N)N)C(C)(C)C)C(=O)O (stereo partly drawn) (X6-PW[Tle]L-OH),,
437,CCOC(=O)[C@H](CC(C)C)NC(=O)[C@@H](NC(=O)[C@H](Cc1c[nH]c2ccccc12)NC(=O)[C@@H]1CCCN1C(=O)[C@H](CCCCN)NC[C@@H](N)CCCN=C(N)N)C(C)(C)C (H-[X3]PW[Tle]L-OEt) [listing 2 of 2 here],,
60,CC(C)C[C@H](NC(=O)[C@@H](NC(=O)[C@H](Cc1c[nH]c2ccccc12)NC(=O)[C@@H]1CCCN1C(=O)[C@@H](N)CCCCN)C(C)(C)C)C(=O)O (H-KPW[Tle]L-OH),> 10,
31.2,CCOC(=O)[C@H](CC(C)C)NC(=O)[C@@H](NC(=O)[C@H](Cc1c[nH]c2ccccc12)NC(=O)[C@@H]1CCCN1C(=O)[C@H](CCCCN)NC[C@@H](N)CCCCN)C(C)(C)C (H-[X1]PW[Tle]L-OEt) [listing 2 of 2 here],,EC50 (HT-29): 4500 nM
0.4,CC(C)C[C@H](NC(=O)[C@@H](NC(=O)[C@H](Cc1ccc(O)cc1)NC(=O)[C@@H]1CCCN1C(=O)[C@H](CCCCN)NC[C@@H](N)CCCCN)C(C)(C)C)C(=O)O (H-[X1]PY[Tle]L-OH) [listing 2 of 2 here],,EC50 (HT-29): 512 nM

# — ChEMBL document CHEMBL1150005, “Reduced amide bond neurotensin 813 mimetics with potent in vivo activity” (Bioorg Med Chem Lett, 1995)
